US20120277265A1, “NOVEL POLYQUINOLINE DERIVATIVES AND THE THERAPEUTIC USE THEREOF” (CENTRE NATIONAL DE LA RECHERCHE SCIENTIFIQUE (C.N.R.S.), priority 2005, published 2012)

How the values were obtained:
Aβ1-42 = target: T1, Aβ1-42 (Homo sapiens, UniProt P05067); assay: Inhibition of the precipitation of Aβ1-42 by the addition of ligand (Micro BCA assay of soluble/aggregated peptide); type: biochemical; details: Aβ1-42 5 μM, pH 7.4; for CuCl2 % soluble Aβ: 20 μM CuCl2, 1 h 37° C. then 1 h with 200 μM ligand; for FeCl3 % soluble Aβ: 20 μM FeCl3, 1 h 37° C. then 1 h with 200 μM ligand; for ZnCl2 % soluble Aβ: 20 μM ZnCl2, 1 h 37° C. then 1 h with 200 μM ligand; for without metal % soluble Aβ: no metal salt, 1 h 37° C. then 1 h with 200 μM ligand
T1 construct: The β-amyloid peptide Aβ1-42 (Aβ1-42) was synthesised, purified (to a purity greater than 95%); made in house; host or cells: chemical peptide synthesis (no expression host)
T1 sequence (P05067 672-713): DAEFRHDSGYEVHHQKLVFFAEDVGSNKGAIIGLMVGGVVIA
Method: After a further hour of incubation, the reaction mixture is centrifuged.
Before use, the water [of Milli-Q Millipore quality] and all buffer solutions were treated on Chelex-100 resin (Biorad) (5 mg/ml) and filtered through 0.2 μm filters (Whatman) to remove potential traces of metal ions or particles.
Working solutions of the peptide were prepared by solubilising 1 mg of lyophilised peptide in 500 μl of water and 500 μl of an aqueous NaOH solution pH=12.0, while stirring in a Thermomixer Comfort (Eppendorf). The peptide preparations are subsequently centrifuged for 10 minutes at 9,000 rpm and the supernatant is used as an “Aβ stock” solution. The concentration of peptide in the “Aβ stock” is determined immediately by colorimetric assay using a Micro BCA Protein Assays kit (Pierce) from standard ranges produced using known amounts of bovine serum albumin (BSA) then the Aβ1-42 peptide solution is aliquoted and frozen rapidly in liquid nitrogen prior to being stored at −20° C. until being used.
Salts are generated by adding one hydrochloric acid equivalent per nitrogen group equivalent of the ligand dissolved in DMSO. After evaporation of the solvent, these salts are dissolved at the desired concentration with DMSO and kept at −20° C. until they are used.
The protocol was established from works by: C. S. Atwood et al., J. Neurochem. […] The final concentrations are given. 500 μl of Aβ1-42 (5 μM is set to aggregate in 20 mM Tris-HCl buffer containing 150 mM NaCl (pH=7.4) for 1 hour at 37° C. while stirring at 1,400 rpm in the absence or presence of metal ions: CuCl2, ZnCl2 or FeCl3 (20 μM). Then 50 pi of ligand to be tested (200 μM) dissolved in DMSO are added and the samples are incubated for 1 further hour at 37° C. while stirring at 1,400 rpm. The samples without ligand also receive 50 μl of DMSO. The samples (final volume=550 μ) are subsequently centrifuged for 20 min at 9,000 rpm, and 500 μl of supernatant are removed. The tube containing the precipitation pellet then receives 450 μl of assay buffer/DMSO mixture (91/9, v/v). […] Quantification is carried out on the basis of standard BSA ranges. The amounts of Aβ1-42 actually contained in the pellet and the supernatant are obtained after a correction due to the presence of a residual portion of supernatant in the pellet-containing fraction.
For the control experiments with derivatives comprising a single quinoline residue, […] of ligand were added because complexes of type L2Cu are conventionally used in these cases.

[1] = Hydrogen peroxide produced by Aβ1-42 in the presence of CuCl2, ascorbate, air and ligand (Amplex Red H2O2/HRP); type: biochemical; details: CuCl2 0.4 μM, ascorbate 10 μM, air
Method: (§1) FIG. 11: Variation in H2O2 production by copper complexes of Aβ1-42 peptide as a function of the Cu(II)/Aβ stoichiometry. Experiments are carried out for 5 minutes in a sodium phosphate buffer (pH=7.4) in the presence 0.4 μM CuCl2, 10 μM ascorbate and air with or without 0.4 μM of 3 or 7. The H2O2 released is quantified by means of an Amplex-Red H2O2/HRP Assay kit.
(§2) The final concentrations are given. The reactions were carried out in the dark in mM sodium phosphate buffer (pH=7.4). Aβ1-42 (0.2 μM) and CuCl2 (0.4 μM) were pre-incubated for 1 hour at 37° C. while stirring at 1,400 rpm in 375 μl of buffer. Then 2 μl of a solution of ligand to be investigated (0.2; 0.4 or 0.8 μM) in DMSO were added. After incubation for a further hour, 2 μl of an aqueous sodium ascorbate solution (10 μM) were added and incubation was continued for 5 min while stirring. The amount of H2O2 produced is then quantified using an Amplex Red H2O2/HRP Assay Kit (Molecular Probes) while adding a volume of assay reagent to the samples, then incubating them for 1 hour at 37° C. while stirring at 500 rpm. […] Quantification is carried out on the basis of standard curves obtained with known amounts of H2O2.
(§3) The figures in the tables correspond to the amount of H2O2 (expressed in nanomoles) added using an Amplex Red H2O2/HRP Assay kit.

[2] = target: T2, copper complexes of Aβ1-42 peptide (Homo sapiens, UniProt P05067); assay: as above; type: biochemical; details: CuCl2 0.4 μM, ascorbate 10 μM, air
T2 construct: The β-amyloid peptide Aβ1-42 (Aβ1-42) was synthesised, purified (to a purity greater than 95%); made in house; host or cells: chemical peptide synthesis (no expression host)
T2 sequence (P05067 672-713 limits assumed, one chain of several): as the sequence (P05067 672-713) above
Method: as §1, §2, §3

[3] = Determination of log D7.4 (1-octanol / Tris-HCl buffer); type: physicochemical; details: 1-octanol / 20 mM Tris-HCl buffer containing 150 mM NaCl (pH = 7.4) (1/1, v/v)
Method: The ligand (2.0 mg) is dissolved in 2 ml of 1-octanol then 2 ml of 20 mM Tris-HCl buffer, pH=7.4 containing 150 mM NaCl are added. After mixing in a vortex for 3 min at ambient temperature, followed by centrifugation for 5 min at 9,000 rpm, the concentration of the ligand in each phase is determined by UV-visible spectrophotometry. The 1-octanol fractions are thus redivided until reproducible values of coefficient of division of obtained. This coefficient is expressed as the decimal logarithm of [(the concentration of ligand contained in the 1-octanol phase)/(the concentration of ligand contained in the buffered aqueous phase)]=log D7.4. Measurements were taken three times.

[4] = tested on: Salmonella tiphimurium TA98; assay: AMES test, TA98; details: value per plate
Excerpt: (§4) AMES test: The method is adapted from D. M. Maron and B. N. Ames, Mutat.
(§5) The test involves evaluating the potential of the tested molecules to induce mutation which is reverse to the histidine locus of these lines. These two lines were provided by Dr. Bruce N. Ames (University of California, Berkeley, USA). They are resistant to Ampicillin and sensitive to Tetracycline. They are not mutant toward rfa, UvγV and UvγA. The line TA98 (his D3052) contains a mutation of reading phase (GC) whereas the line TA100 (his G46) contains a substitution of base pair (GC).
(§6) The compounds to be tested were dissolved in 100% of DMSO (the solvent) and diluted logarithmically (by a factor of 10) so as to obtain 4 test concentrations of 30,000; 3,000; 300 and 30 μg/ml. Each series of 0.1 ml of stock solution to be tested, 0.1 ml of test line and of culture medium with or without 0.5 ml of enzymatic homogenate (S9) of rat liver microsome were mixed with 2 ml of molten agarose (containing 0.5 mM of histidine and 0.5 mM of biotin). This mixture was placed on the surface of a plate of minimal agarose glucose medium (30 ml for each Petri dish) so as to obtain final concentrations of compound to be tested of 3,000; 300; 30 and 3 μγ/plate. The plates were then incubated at 37° C. for 48 hours. […] The revertant colonies of the test lines were counted using a colony counter (Sigma). […] A compound inducing a number of colonies <50% of cells obtained for the solvent alone was deemed to be toxic for the bacteria tested. All the experiments were carried out in triplicate.

[5] = tested on: Salmonella tiphimurium TA100; assay: AMES test, TA100; details: value per plate
Excerpt: as §4, §5, §6

[6] = UV-visible spectrophotometric titration with CuCl2 (metal/ligand stoichiometry); type: binding; details: 15 μM ligand; Tris-HCl buffer pH 7.4/organic solvent, per ligand as in Table 3 column Solvent
Method: (§7) An organic solvent (CH3OH, dioxane or DMSO) was added in order to achieve good solubility of the ligands and metal complexes in the concentrations used in these experiments. Exact proportions of the organic solvent/buffer mixture are specified for each UV-visible characterisation of the different ligands or metal complexes.
(§8) Aliquot portions of concentrated CuCl2 or ZnCl2 solutions (M) are added to a 15 μM ligand solution so as to induce only negligible variations in volume. After each addition, changes in absorption spectra are observed immediately and are consistent between two additions, which corresponds to a rapid complexing process. The exact absorption values relating to each ligand and the copper(II) or zinc(II) complexes thereof are detailed hereinafter in the Experimental part (in the Synthesis part for ligands and hereinafter for the metal complexes).
(§9) The stoichiometry of the different ligands (L) for Cu(II) or ZN(II) have therefore been determined spectrophotometrically by metal ion titration. In this example, for an M/L ratio increasing from 0 to 1, π→π* with transition, centred at 251 nm for the free ligand, is shifted to a lower energy with a concomitant appearance of an absorption band in the visible region of the spectrum (λmax to 383 nm), which is probably the result of an MLCT transition. For greater M/L ratios, no additional change in the UV-visible absorption spectra is observed.

[7] = UV-visible spectrophotometric titration with ZnCl2 (metal/ligand stoichiometry); type: binding; details: 15 μM ligand; Tris-HCl buffer pH 7.4/organic solvent, per ligand as in Table 3 column Solvent
Method: as §7, §8, §9

[8] = Competition reaction between ligand (Ls), ZnCl2 and competing chelator (Lc), UV-visible; affinity constants; type: binding; details: Ls/ZnCl2/Lc 1/1/1 at 15 μM; solvent per ligand as in Table 3
Method: An organic solvent (CH3OH, dioxane or DMSO) was added in order to achieve good solubility of all the ligands and metal complexes in the concentrations used in these experiments.
As the concentration [MLs]=x % of C is measured on the UV-visible spectra, the concentrations [Ls]=(1−x) % of C, [MLc]=(1−x) % of C and [Lc]=x % of C can be deduced therefrom and:
In these conditions, [MLs]=[MLc]; [MLs]+[Lc]=Y, y≧50 and:
When log Ks 6, these equations are not used since the percentages of metal ion which is free in the solution or chelated by the solvent or the buffer are not negligible.

[9] = Competition reaction between ligand (Ls), CuCl2 and competing chelator (Lc), UV-visible; affinity constants; details: Ls/CuCl2/Lc 1/1/1 at 15 μM; solvent per ligand as in Table 3
Method: An organic solvent (CH3OH, dioxane or DMSO) was added in order to achieve good solubility of all the ligands and metal complexes in the concentrations used in these experiments. Monitoring has shown that all the ligands and metal complexes examined yield results corresponding to the Beer-Lambert Law in the experimental conditions used.
Lc competing chelators were selected to provide a range of stability constants for the metal ion M presenting intervals of approximately one or two log units, as well as to make it possible for each competition experiment to quantify one of the Ls, MLs, Lcc or MLc species with a UV-vis spectrum wavelength without contaminating the three other species (FIG. 7). […] As the concentration [MLs]=x % of C is measured on the UV-visible spectra, the concentrations [Ls]=(1−x) % of C, [MLc]=(1−x) % of C and [Lc]=x % of C can be deduced therefrom and:

SMILES	CuCl2 % soluble Aβ (Aβ1-42)	FeCl3 % soluble Aβ (Aβ1-42)	ZnCl2 % soluble Aβ (Aβ1-42)	without metal % soluble Aβ (Aβ1-42)	amount of H2O2, without Aβ1-42 ([1]; ligand 1 eq/Cu(II) (0.4 μM))	amount of H2O2, without Aβ1-42 ([1]; ligand 2 eq/Cu(II))	amount of H2O2, 0.2 μM Aβ1-42 Cu/Aβ = 2 ([2]; ligand 1 eq/Cu(II) (0.4 μM))	amount of H2O2, 0.5 μM Aβ1-42 Cu/Aβ = 0.75 ([2]; ligand 1 eq/Cu(II) (0.4 μM))	amount of H2O2, 0.2 μM Aβ1-42 Cu/Aβ = 2 ([2]; ligand 2 eq/Cu(II))	amount of H2O2, 0.5 μM Aβ1-42 Cu/Aβ = 0.75 ([2]; ligand 2 eq/Cu(II))	logD at 3 min [3]	TA98 Cytotoxicity ([4]; Addition of S9: no)	TA98 Cytotoxicity ([4]; Addition of S9: yes)	TA100 Cytotoxicity ([5]; Addition of S9: no)	TA100 Cytotoxicity ([5]; Addition of S9: yes)	Complex observed by titration with Cu^II (observed L/Cu(II) stoichiometry) [6]	Complex observed by titration with Zn^II (observed L/Zn(II) stoichiometry) [7]	percentage of ZnLs species at equilibrium, competing ligand EDTA [8]	percentage of the CuLs species at equilibrium, competing ligand EDTA [9]	percentage of the CuLs species at equilibrium, competing ligand EDDA [9]
Oc1c(I)cc(Cl)c2cccnc12 [Clioquinol, reference compound]	55 ± 3%	51%	37%	63%	2.07 nmol	0.54 nmol	0.89 ± 0.08 nmol	0.64 nmol	0.78 ± 0.06 nmol	0.57 nmol	3.8 ± 0.1	300 µg	300 µg	30 µg	30 µg					
Oc1cccc2ccc(CCCCc3ccc4cccc(O)c4n3)nc12 [Compound 10, 2,2′-(1,4-Butanediyl)-bis(8-hydroxyquinoline)]	42%	43%	43%	52%							3.8 ± 0.1					LCu^II(1/1)	LZn^II(1/1)	45%	45%	
c1cnc2c(NCCCNc3cccc4cccnc34)cccc2c1 [Compound 13, N,N′-di-8-quinolinyl-1,3-propanediamine]	55 ± 3%	66%	57%	71 ± 2%	0.89 nmol		2.10 nmol	0.70 nmol			2.7 ± 0.1					LCu^II(1/1)			25%	65%
COc1ccc2ccc(CCc3ccc4ccc(OC)c(O)c4n3)nc2c1O [Compound 17, 2,2′-(1,2-ethanediyl)-bis[7-(methyloxy)-8-quinolinol]]	38 ± 4%	38%	42 ± 4%	63 ± 3%			0.69 nmol				3.5 ± 0.1					LCu^II(1/1)	LZn^II(1/1)	35%	55%	
CCCCN(c1ccc2cccc(N)c2n1)c1ccc2cccc(N)c2n1 [Compound 23, N-butyl-2,2′-imino-bis(8-quinolineamine)]	60 ± 4%	62%	58 ± 4%	73%	0.65 nmol		0.69 nmol	0.49 nmol			2.5 ± 0.1					LCu^II(1/1)			30%	
